This note sets out measurements from ChEMBL document CHEMBL5120810, “Toporosides A and B, Cyclopentenyl-Containing ω-Glycosylated Fatty Acid Amides, and Toporosides C and D from the Northwestern Pacific Marine Sponge Stelodoryx toporoki” (2022).

In the test the test system is H9c2. Kind of test: Cardioprotective activity against TNF-alpha induced rat H9c2 cells assessed as increase in cell viability at 2.5 uM pretreated with TNF-alpha for 1 hr followed by compound addition measured after 48 hrs by MTT assay relative to control. Format: functional.
`CO[C@@H](CC/C=C\CCCCC(=O)CCCCC(=O)CCCCCCCCCCO[C@@H]1O[C@H](C(=O)O)[C@@H](O)[C@H](O)[C@H]1O)C(=O)NCCc1ccc(O)c(O)c1`: the Activity is recorded as 18%. With `CO[C@@H](CC/C=C\CCCCC(=O)C1=C(CC/C=C\CCCCCCCCO[C@@H]2O[C@H](C(=O)O)[C@@H](O)[C@H](O)[C@H]2O)CCC1)C(=O)NCCc1ccc(O)c(O)c1`, the Activity was found to be 23%. Turning to `CO[C@@H](CC/C=C\CCCCC(=O)CCCCC(=O)CC/C=C\CCCCCCCCO[C@@H]1O[C@H](C(=O)O)[C@@H](O)[C@H](O)[C@H]1O)C(=O)NCCc1ccc(O)c(O)c1`, the Activity is recorded as 25%.
